Measured values: patent US12545653B2, “Compound as PPAR agonist and application thereof” (USA Elixiria Biotech Inc., priority 2019, dated 2026)
pEC50: −log10 of the molar value.

Assays:
[1] = system: MPTP-HCl Parkinson's disease model mice; test: Parkinson's disease model (MPTP-HCl), beam traversal test; details: MPTP-HCl/probenecid mice, 5 mg/kg body weight intraperitoneal daily, 35 days
Procedure: Three month-old male wild type mice were used in the experiment. The treatment lasted for a total of 35 days. […] For all abovementioned groups, Motor skills were assessed on the 36th to 40th days after compound administration. Beam traversal test is a method commonly used in academia to detect movement coordination in animals with Parkinson's disease. […] The mice were first trained for 2 consecutive days, and taught to trained to traverse the length of the beam. On the day of the test, a mesh grid (1 cm squares) of corresponding width was placed over the beam surface leaving a ˜1 cm space between the grid and the beam surface. Animals were then videotaped while traversing the grid-surfaced beam for a total of five trials. An error was counted when, during a forward movement, a forelimb or hindlimb slipped through the grid. The number of errors made per step (referred to as “error per step scores”) was counted. An analysis of variance (ANOVA) and Dunnett post hoc comparison test are used to compare the significance of the differences between different groups of data. The difference is significant with P<0.05.

klotho gene promoter = test: In vitro transcriptional activity of klotho gene (KL-Luc-3 luciferase cell line); format: cell-based; details: KL-Luc-3 cells; for pEC50: 16 h, 16 hours incubation
Excerpt: The activities of these carbonyl-containing cyclic compounds are indicated by the increased expression of klotho gene. […] The present invention retains the DNA fragment of the klotho gene promoter, but replaces the DNA sequence of the coding region of the klotho gene with those of luciferase, so that the degree of activation of the klotho gene promoter and the expression of the klotho gene will be sensitively determined by detecting the luciferase luminescence signal.
Klotho is an important downstream gene of PPARγ pathway. The following experiments tested the properties of the compounds in Table 2 and 3 to activate the klotho gene in vitro. First, a stable cell line, KL-Luc, was constructed. The klotho gene carried by the cell line retained the DNA sequence of klotho gene promoter, but the coding sequence of the klotho gene was replaced with luciferase. KL-Luc fragment includes a promoter sequence of the klotho gene (a DNA region of 18,000 base pairs in length upstream of the transcription start site of the gene) and a luciferase-encoding sequence. To construct the KL-Luc sequence containing lentiviral vector, the KL-Luc fragment was cloned into the pDONR vector using BP recombinase, so that the target fragment had attL recombination sites on both sides. Then the KL-Luc fragment was transferred from the pDONR vector to a lentiviral vector (without exogenous promoter) pLenti6/BLOCK-IT-DEST. The constructed lentiviral vector of the target fragment was then transfected into HEK293T cells, and then the KL-Luc gene lentiviral expression vector and the […] were co-transfected into HEK293T cells to perform lentiviral packaging. The virus was harvested, and virus titer was calculated. And the lentivirus was used to infect target cells. The stable strains were screened by adding drugs. Finally, monoclonal cell lines were selected from polyclonal cells by cell cloning. The effective luciferase expression of each monoclonal cell line was determined by quantitative polymerase chain reaction (qPCR). The inventors chose a third monoclonal cell line (KL-Luc-3) to continue the compound screening. The compounds of interest were the compounds in Table 2 and 3. At the same time, rosiglitazone and pioglitazone were used as a control. KL-Luc-3 cells were divided into 96-well plates at 5000 cells in 80 microL per well, cultured in a 37° C. carbon dioxide incubator with serum-free Duchenne's Modified Eagle's Medium (DMEM) for 6 hours, and then the compounds were added to a final concentration of 0, 0.1, 0.3, 1, 3, 10, 30 micromole/L, with each concentration in triplicate. After 16 hours of incubation, the SteadyLite (PerkinElmer, Waltham, MA) and the GloMax Microplate Luminometer (Promega, USA) were used for quantitation of luciferase activity. The amount of luminescence emitted from each well is positively related to the transcriptional activity of the klotho promoter. A three-parameter Sigmoid function curve was used to fit the obtained data. The abscissa represents the logarithmic value of the concentration, and the ordinate represents the percentage of the activity relative to those of the control. […] In Statistical analysis, the coefficient of variation is used to measure the robustness and repeatability of the experiment. […] The difference is significant with P<0.05. EC50 is a parameter of its activity. The lower the EC50 value, the higher the activity of corresponding compound.

klotho gene = test: In vivo brain transcriptional activity of klotho gene (RT-PCR of brain mRNA); parameters: species or system mouse; details: 10 mg/kg body weight/day tail vein; for mRNA level of klotho gene in the brain of the mouse relative to vehicle control group: after 10 days of continuous injection; for fold induction at 10 mg/kg: Mus musculus, iv, 720 h, after 30 days of continuous injection, read-out: mRNA level of klotho gene in the brain of the mouse relative to vehicle control group
Procedure: To verify this hypothesis, adult male Kunming mice were used in the experiments. […] The injection volume is 8 ml/kg body weight. Dimethyl sulfoxide (DMSO) was used as a vehicle control of the compounds. […] The RNA was then reverse-transcribed to the cDNA, and quantified by SYBR Green fluorescence quantitative PCR kit (HaiGene) and a quantitative PCR system (Bio-Rad Min-Opticon Type 2) were used for real-time fluorescent quantitative polymerase chain reaction (RT-PCR). The mouse gene primers were design as follows: • KLOTHO-forward 5′-[…]-3′; • LOTHO-reverse 5′-[…]-3′; • GAPDH-forward 5′-[…]-3′; • GAPDH-reverse 5′-[…]-3′.
Data analysis was performed using the 2^−ΔΔct method. Semi-quantitative values of gene expression were then normalized by the control mean.

HEK 293T cells = test: Inhibition of reactive oxygen species production (ROS-Glo H2O2 Assay); format: cell-based, human; details: 18 hours incubation
Procedure: Mitochondrial reactive oxygen species-induced oxidative stress is the source of many diseases. This experiment is used to test whether the carbonyl-containing cyclic compounds provided by the present invention can reduce the production of reactive oxygen species. HEK 293T cells were divided into 96-well plates at 5000 cells per well, cultured in a 37° C. carbon dioxide incubator with serum-free Duchenne's Modified Eagle's Medium (DMEM) for 6 hours, and then representatives for compounds listed in Table 2 and 3 were added to a final concentration of 0, 0.1, 0.3, 1, 3, 10, 30 micromole/L, with each concentration in triplicate. After 18 hours of incubation, the reactive oxygen species detection kit (ROS-Glo™ H2O2 Assay) and the GloMax microplate fluorescence detector (Promega, USA) were used to detect reactive oxygen species production. At the same time, pioglitazone was used as a control. The amount of fluorescence is positively related to the production of reactive oxygen species. A three-parameter Sigmoid function curve was used to fit the obtained data. The abscissa represents the logarithmic value of the concentration, and the ordinate represents the percentage of reduced reactive oxygen species production relative to those of the control. Then EC50 value was calculated with professional software.

[2] = system: dIoN-CCI rat model of trigeminal neuropathic pain; test: Trigeminal neuralgia model (dIoN-CCI), Von Frey mechanical threshold; details: dIoN-CCI rats

Row | Compound | pEC50 (klotho gene promoter) | number of errors per step in beam traversal test compared with disease control group [1] | mRNA level of klotho gene in the brain of the mouse relative to vehicle control group (klotho gene) | fold induction at 10 mg/kg (klotho gene) | other results
1 | CCc1ccc(CC/C=C/c2ccc3c(c2)C(=O)CC3)cc1 [ELB00824, (E)-6-(4-(4-ethylphenyl)but-1-en-1-yl)-2,3-dihydro-1H-inden-1-one] | 5.82 |  | more than twice | > 5 | induced transcriptional activity of klotho gene relative to pioglitazone (klotho gene promoter): more than 66 folds; induced transcriptional activity of klotho gene relative to rosiglitazone (klotho gene promoter): 6 folds; klotho EC50 as fraction of that of pioglitazone (klotho gene promoter): less than 1/67; klotho EC50 as fraction of that of rosiglitazone (klotho gene promoter): 1/6; inhibition of active oxygen production (up to), compared to the DMSO control (HEK 293T cells; 0-30 micromole/L): up to 45%; duration of anti-allodynic effect (mechanical threshold 10 grams and above) ([2]; IP, 20 mg/kg body weight): 1.8 h; mechanical pain threshold after 1 hour of administration ([2]; IP, 20 mg/kg body weight): 12.8 ± 2.2 g; minimum effective anti-allodynic dose ([2]; oral): 3 mg/kg; mechanical threshold 2 hours after oral administration ([2]; oral 3 mg/kg body weight, Von Frey): 4.2 ± 0.8 g; duration of the anti-allodynic effect ([2]; oral 10 mg/kg): 2 h; mechanical pain threshold 2 hours after oral administration ([2]; oral 10 mg/kg body weight, Von Frey): 8.9 ± 2 g; duration of anti-allodynic effect (mechanical threshold 10 grams and above) ([2]; oral, 20 mg/kg body weight): 0.7 h; mechanical pain threshold after 1 hour of administration ([2]; oral, 20 mg/kg body weight): 6.8 ± 1.9 g; anti-allodynic property relative to pioglitazone ([2]; oral, from minimum effective doses): about 100 times; mechanical pain threshold after 1 hour of administration ([2]; transdermal cream containing 7% ELB00824, 20 mg/kg body weight): 19.8 ± 3.1 g; duration of anti-allodynic effect (mechanical threshold 10 grams and above) ([2]; transdermal, 20 mg/kg body weight): 2.3 h
2 | CCc1ccc(OC/C=C/c2ccc3c(c2)C(=O)CC3)cc1 [ELB001115, (E)-6-(3-(4-ethylphenoxy)prop-1-en-1-yl)-2,3-dihydro-1H-inden-1-one] | > 5.01 | significantly lower | more than twice | > 5 | 
3 | CCc1ccc(CC/C=C/c2ccc3c(c2)C(=O)COC3)cc1 [ELB001046, (E)-6-(4-(4-ethylphenyl)but-1-en-1-yl)isochroman-4-one] |  | significantly lower | more than twice | > 5 | pEC50 (HEK 293T cells; Homo sapiens, HEK-293T, 18 h): > 5.00
4 | COc1ccc(CC/C=C/c2ccc3c(c2)C(=O)CC3)cc1 [ELB001116, (E)-6-(4-(4-methoxyphenyl)but-1-en-1-yl)-2,3-dihydro-1H-inden-1-one] | > 5.01 | significantly lower | more than twice | > 5 | 

Further lines, with some results ahead:

Row | pEC50 (klotho gene promoter) | Compound | number of errors per step in beam traversal test compared with disease control group [1] | mRNA level of klotho gene in the brain of the mouse relative to vehicle control group (klotho gene) | fold induction at 10 mg/kg (klotho gene) | other results
5 | > 5.01 | CCc1ccc(CC/C=C/c2ccc3c(c2)OCCC3=O)cc1 [ELB001045, (E)-7-(4-(4-ethylphenyl)but-1-en-1-yl)chroman-4-one] | significantly lower | more than twice | > 5 | 
6 | > 5.01 | CCc1ccc(CC/C=C/c2ccc3c(c2)C(=O)CC3)nc1 [ELB001125, (E)-6-(4-(5-ethylpyridin-2-yl)but-1-en-1-yl)-2,3-dihydro-1H-inden-1-one] | significantly lower | more than twice | > 5 | 
